Laboratory results taken from US20130102009A1, “SIRTUIN ACTIVATORS AND ACTIVATION ASSAYS” (priority 2010, published 2013).

What was measured:
[1] = target: Ac-Arg-His-Lys-Lys^Ac-NH2; assay: ITC binding of STACs to Ac-Arg-His-Lys-Lys^Ac-X, X=NH2; conditions: 10% DMSO for SRT1720, SRT2183 and 10, no cosolvent for SRT1460
Experimental: (§1) ITC experiments were performed using either a VP-ITC system or iTC200 system (MicroCal) at 26° C. in a buffer composed of 137 mM NaCl, 2.7 mM KCl, 1 mM MgCl2, 2 mM TCEP, 5% (v/v) glycerol and 50 mM HEPES-NaOH, pH 7.3. SIRT1(183-664) was purified and dialyzed against the buffer, centrifuged, and degassed before the experiment. The peptide and compounds were dissolved in the final dialysis buffer and their pH values were adjusted to match that of the protein solution. […] To characterize this interaction using the iTC200 system, 1 mM TAMRA-peptide was injected in 20 aliquots of 2 μL, (except the first injection, which was 0.5 μL) into a 0.202 mL sample cell containing 100 μM STAC. For STACs with poor solubility, the concentrations were adjusted accordingly. […] In all cases, data was corrected for the heat of dilution and fitted using a nonlinear least-squares routine using a single-site binding model with Origin for ITC v7.0383 (Microcal) with the stoichiometry (n), the enthalpy of the reaction (ΔH) and the association constant (Ka) calculated. Table 2 summarizes Kd values for the binding of STACs to […]. Note that except for SRT1460, the solubility of the compounds required that these ITC experiments be done in solutions containing 10% DMSO.

[2] = target: Ac-Arg-His-Lys-Lys^Ac-AMC; assay: ITC binding of STACs to Ac-Arg-His-Lys-Lys^Ac-X, X=AMC; conditions: 10% DMSO for SRT1720, SRT2183 and 10, no cosolvent for SRT1460
Experimental: as §1

[3] = target: Ac-Arg-His-Lys-Lys^Ac-Trp-NH2; assay: ITC binding of STACs to Ac-Arg-His-Lys-Lys^Ac-X, X=TrpNH2; conditions: 10% DMSO for SRT1720, SRT2183 and 10, no cosolvent for SRT1460
Experimental: as §1

[4] = target: Ac-Arg-His-Lys-Lys^Ac-Phe-NH2; assay: ITC binding of STACs to Ac-Arg-His-Lys-Lys^Ac-X, X=PheNH2; conditions: 10% DMSO for SRT1720, SRT2183 and 10, no cosolvent for SRT1460
Experimental: as §1

SIRT1 = target: T1, SIRT1 (Homo sapiens, UniProt Q96EB6); assay: Continuous PNC1-GDH-coupled assay of SIRT1-catalyzed deacetylation of Ac-Arg-His-Lys-Lys^Ac-X with STACs; format: biochemical; conditions: [SRT]o = 5 μM, [peptide]o ≦ Km, [NAD+] = 70 μM; for Relative Velocity, X=AMC: Ac-Arg-His-Lys-Lys^Ac-AMC; for Relative Velocity, X=Ala-NH2: Ac-Arg-His-Lys-Lys^Ac-Ala-NH2; for Relative Velocity, X=NH2: Ac-Arg-His-Lys-Lys^Ac-NH2; for Relative Velocity, X=Phe-NH2: Ac-Arg-His-Lys-Lys^Ac-Phe-NH2
T1 sequence (Q96EB6 1-747): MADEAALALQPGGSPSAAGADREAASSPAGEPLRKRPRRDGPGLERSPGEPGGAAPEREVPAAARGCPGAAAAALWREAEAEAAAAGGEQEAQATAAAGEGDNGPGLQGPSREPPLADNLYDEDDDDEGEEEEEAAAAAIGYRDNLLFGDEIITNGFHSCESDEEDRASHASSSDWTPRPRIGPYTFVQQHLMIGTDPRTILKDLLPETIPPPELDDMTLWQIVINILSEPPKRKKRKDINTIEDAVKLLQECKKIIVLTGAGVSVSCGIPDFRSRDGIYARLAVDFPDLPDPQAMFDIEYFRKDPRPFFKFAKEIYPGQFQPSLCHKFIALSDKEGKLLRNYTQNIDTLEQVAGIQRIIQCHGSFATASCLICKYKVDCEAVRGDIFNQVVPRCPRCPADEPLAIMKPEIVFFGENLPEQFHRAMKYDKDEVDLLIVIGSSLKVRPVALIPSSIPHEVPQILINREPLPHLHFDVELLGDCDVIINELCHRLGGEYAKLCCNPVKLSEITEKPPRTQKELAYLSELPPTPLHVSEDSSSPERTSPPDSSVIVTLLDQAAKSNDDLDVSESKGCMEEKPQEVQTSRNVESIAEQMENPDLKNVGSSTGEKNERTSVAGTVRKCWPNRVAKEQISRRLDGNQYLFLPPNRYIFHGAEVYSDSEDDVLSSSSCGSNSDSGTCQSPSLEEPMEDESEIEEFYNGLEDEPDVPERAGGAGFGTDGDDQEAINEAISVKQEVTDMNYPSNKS
Experimental: Bovine glutamate dehydrogenase (GDH), α-ketoglutarate, NADH and NAD^+ were from Sigma Chemical Company. […] The nicotinamidase PNC1 was prepared as described by Denu and colleagues (Smith et al. (2009) Anal Biochem 394, 101-109). To determine the interaction of STACs with SIRT1 two kinetic methods were employed. […] (2007) Nature 450, 712-716). The other, used with peptides of general structure […], used a continuous, enzyme-coupled method reported previously (Smith et al. (2009) Anal Biochem 394, 101-109), in which the SRT1 product nicotinamide is first converted into nicotinic acid and ammonia by the action of PNC1, and the ammonia then used by GDH to convert α-ketoglutarate into glutamate. This reaction occurs with oxidation of NADH to NAD^+ which is accompanied by a change in absorbance at 340 nm (Δε340=-6,200 M^-1 cm^-1). The kinetic experiments used to characterize activators were run on a Perkin Elmer Lambda 25 spectrophotometer equipped with a water-jacketed, eight-cell changer maintained at 25° C. In a typical kinetic experiment, all components of the reaction solution except SIRT1 were added to a 1 mL cuvette and allowed to reach thermal equilibrium. Final concentrations of the coupling system components were: 1 μM PNC1, 0.23 mM NADH, 3.4 mM α-ketoglutarate, and 20 U/mL bovine GDH. This solution also contained peptide substrate, NAD^.0., and activator, at concentrations indicated in the text. The final DMSO concentration was kept constant at 1%, and the buffer used in these experiments was 50 mM HEPES, 150 mM NaCl, pH 7.5. While the system was reaching thermal equilibrium, the absorbance was monitored to provide an accurate estimate of the background rate, which was subtracted from the reaction rate after the addition of SIRT1. Activator titrations were plotted as relative velocity (i.e., the ratio of vx, velocity in the presence of activator X, to vo, velocity in the absence of activator) vs. [X]o, initial concentration of activator, and fit by nonlinear least-squares to the mechanism-independent expression for enzyme activation of […] the maximum relative velocity (i.e., vx/vo at infinite [X]o) and EC50 is the activator concentration at which vx/vo=(RVmax-1)/2. EC50 is a function of the kinetic mechanisms of both catalysis and activation, and the concentrations of substrates.

## O=C(Nc1ccccc1-c1cn2c(CN3CCNCC3)csc2n1)c1cnc2ccccc2n1 [SRT1720]
[1]
  Kd: > 500 µM
[2]
  Kd: > 500 µM
[3]
  Kd: 150 µM
  Kd for binding to Ac-Arg-His-Lys-Lys^Ac-X, X=TrpNH2: binds
[4]
  Kd: > 500 µM
SIRT1
  Relative Velocity, X=AMC: 1.0
  Relative Velocity, X=Ala-NH2: 0.9
  Relative Velocity, X=NH2: 1.1
  Relative Velocity, X=Phe-NH2: 0.9

## O=C(Nc1ccccc1-c1cn2c(CN3CC[C@@H](O)C3)csc2n1)c1ccc2ccccc2c1 [SRT2183]
[1]
  Kd: > 50 µM
[2]
  Kd: > 50 µM
[3]
  Kd: > 50 µM
[4]
  Kd: > 50 µM
SIRT1
  Relative Velocity, X=AMC: 1.1
  Relative Velocity, X=Ala-NH2: 0.8
  Relative Velocity, X=NH2: 1.2
  Relative Velocity, X=Phe-NH2: 1.0
SIRT1; Ac-Arg-His-Lys-Lys^Ac-Trp-NH2
  Relative Velocity, X=Trp-NH2: 1.0
